Our source for the IC50 values is PubChem BioAssay AID1278 (The Scripps Research Institute Molecular Screening Center, 2008).

Calls of active or inactive are those of the source. The rule behind the calls is not given here.

The assay has as its target Neuropeptide Y receptor type 2 (Homo sapiens) (UniProt P49146). Put plainly: IC50 for human NPY-Y2 blockade – cell-based, counter-screen for NPY-Y1 antagonist project, dose response (AID 1278). Particulars: NPY-Y2 expressing cells, antagonism, cell-based HTS. A general note: Counterscreens check selectivity or assay interference.

Neuropeptide Y receptor type 2 (Homo sapiens), sequence (P49146 whole entry, looked up): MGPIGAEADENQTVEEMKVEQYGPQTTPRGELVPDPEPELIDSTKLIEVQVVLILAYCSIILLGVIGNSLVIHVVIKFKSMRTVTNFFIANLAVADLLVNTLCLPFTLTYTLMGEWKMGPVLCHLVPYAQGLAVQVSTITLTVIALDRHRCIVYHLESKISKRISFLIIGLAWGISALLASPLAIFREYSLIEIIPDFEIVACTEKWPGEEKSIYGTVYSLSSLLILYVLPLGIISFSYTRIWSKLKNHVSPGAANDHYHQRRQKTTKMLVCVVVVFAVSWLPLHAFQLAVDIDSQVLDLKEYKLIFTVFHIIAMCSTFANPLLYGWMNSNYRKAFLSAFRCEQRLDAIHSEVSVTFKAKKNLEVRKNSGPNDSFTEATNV

What is called IC50 is the concentration that gives 50% inhibition. With `CCc1cc(-c2[nH]ncc2-c2ccc3c(c2)OCO3)c(O)cc1O`, the IC50 is < 35 µM (inactive).
